Laboratory results reported in EPA's ToxValDB 9.5 (doi:10.2903/j.efsa.2010.1526).
Values after ≈ are worked out from the molar mass of the structure shown.

Key:
[1] = test system: Oryctolagus sp.
[2] = test system: Apis mellifera; conditions: acute; duration: 48 hours; oral; unspecified; mortality
[3] = test system: Hypoaspis aculeifer; conditions: chronic/long-term; duration: 14 days
[4] = test system: Tagia sp.; conditions: acute; duration: 14 days; mortality
[5] = test system: Bird
[6] = test system: Oncorhynchus mykiss; conditions: acute; duration: 96 hours; mortality
[7] = test system: Bibionidae; conditions: chronic/long-term; duration: 17 days
[8] = test system: Canidae; conditions: chronic; duration: 1 years; oral; Dog Other; clinical chemistry
[9] = test system: Rattus norvegicus; conditions: oral

C=CCOC(Cn1ccnc1)c1ccc(Cl)cc1Cl (stereo not drawn) [Imazalil]
NOAEL ([1]; developmental, development): 5 mg/kg-day | NOEL ([1]; reproduction developmental, reproduction): 20 mg/kg-day | LD50 [2]: > 35.1 µg/piece | NOEC [3]: 107 mg/kg | LC50 [4]: 541 mg/kg | LD50 ([5]; acute, oral, unspecified, mortality): 510 mg/kg-day | NOEC ([5]; chronic/long-term): 24 mg/kg-day | LC50 ([5]; short-term, oral, feed, mortality): > 516 mg/kg-day | LC50 [6]: 1.48 µg/mL (≈ 4.98 µM) | NOEC [7]: 0.181 mg/L | NOAEL [8]: 2.5 mg/kg-day | LD50 ([9]; acute, mortality): 227 mg/kg-day | NOAEL ([9]; chronic, duration: 6 months, clinical chemistry): 5 mg/kg-day
